This experiment addresses Ubiquitin carboxyl-terminal hydrolase 1/WD repeat-containing protein 48 (Homo sapiens, UniProt O94782). The experiment in a line: Inhibitory Activity on USP1/UAF1 Enzymology. Here is the method:
Ubiquitin rhodamine 110 was used as a substrate to detect the activity of the deubiquitinating enzyme USP1/UAF1 after drug treatment. The total test system was 20 μl, and the test buffer comprises 50 mM Tris-HCl (pH 7.8), 0.5 mM EDTA, 0.01% Bovine Serum Albumin, 1 mM DTT, and 0.01% Tween-20.

Ubiquitin carboxyl-terminal hydrolase 1/WD repeat-containing protein 48, sequence (O94782 whole entry): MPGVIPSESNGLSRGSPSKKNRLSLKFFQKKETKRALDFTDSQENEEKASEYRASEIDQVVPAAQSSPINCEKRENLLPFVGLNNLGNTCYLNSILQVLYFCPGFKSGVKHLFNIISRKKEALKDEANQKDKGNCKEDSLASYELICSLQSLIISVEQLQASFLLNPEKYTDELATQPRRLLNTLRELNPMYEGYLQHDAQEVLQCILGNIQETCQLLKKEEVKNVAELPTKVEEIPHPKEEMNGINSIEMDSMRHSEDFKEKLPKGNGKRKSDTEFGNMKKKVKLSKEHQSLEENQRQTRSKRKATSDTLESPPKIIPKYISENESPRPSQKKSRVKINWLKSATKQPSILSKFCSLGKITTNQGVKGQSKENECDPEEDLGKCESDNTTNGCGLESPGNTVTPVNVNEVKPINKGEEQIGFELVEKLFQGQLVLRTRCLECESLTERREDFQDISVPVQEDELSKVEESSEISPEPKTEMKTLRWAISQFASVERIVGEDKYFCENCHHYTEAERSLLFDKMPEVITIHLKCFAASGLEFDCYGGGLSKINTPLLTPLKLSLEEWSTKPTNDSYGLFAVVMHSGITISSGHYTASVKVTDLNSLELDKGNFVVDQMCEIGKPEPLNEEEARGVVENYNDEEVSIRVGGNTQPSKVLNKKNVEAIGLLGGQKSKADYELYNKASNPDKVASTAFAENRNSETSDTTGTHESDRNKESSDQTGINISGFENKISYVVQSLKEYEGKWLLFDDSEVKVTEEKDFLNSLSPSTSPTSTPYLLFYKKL
Ubiquitin carboxyl-terminal hydrolase 1/WD repeat-containing protein 48, sequence (Q8TAF3 whole entry, further chain): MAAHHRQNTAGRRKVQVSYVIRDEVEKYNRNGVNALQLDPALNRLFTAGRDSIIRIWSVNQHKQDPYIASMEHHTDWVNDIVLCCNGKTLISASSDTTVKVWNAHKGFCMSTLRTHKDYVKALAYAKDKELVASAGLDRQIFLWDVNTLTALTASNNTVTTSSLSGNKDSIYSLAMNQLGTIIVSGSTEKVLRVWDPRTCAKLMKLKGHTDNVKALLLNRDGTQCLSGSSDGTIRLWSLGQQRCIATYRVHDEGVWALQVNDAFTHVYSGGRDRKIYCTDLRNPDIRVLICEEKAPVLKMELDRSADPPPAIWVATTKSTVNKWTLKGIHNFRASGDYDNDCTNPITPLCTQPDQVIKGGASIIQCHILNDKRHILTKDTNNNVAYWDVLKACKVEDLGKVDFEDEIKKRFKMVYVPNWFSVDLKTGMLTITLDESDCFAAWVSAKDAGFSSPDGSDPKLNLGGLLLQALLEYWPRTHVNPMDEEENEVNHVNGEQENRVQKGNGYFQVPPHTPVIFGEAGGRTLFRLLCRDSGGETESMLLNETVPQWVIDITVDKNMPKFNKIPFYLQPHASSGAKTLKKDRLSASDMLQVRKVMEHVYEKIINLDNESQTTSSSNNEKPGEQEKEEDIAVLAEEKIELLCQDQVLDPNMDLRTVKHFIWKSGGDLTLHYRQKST

As to `Fc1c(-c2c(OC(F)F)ncnc2C2CC2)ncc2cnn(CC34CCC(c5nc(C(F)(F)F)cn5CC5CC5)(CC3)CC4)c12` [US20250382289, Compound 10], the IC50 (as a rule, the concentration at which inhibition is half-maximal) is less than 20 nM. Regarding `Fc1c(-c2c(OC(F)F)ncnc2C2CC2)ncc2cnn(Cc3ccc(-c4nc(C(F)(F)F)c5n4CC4(CC4)C5)cc3)c12` [US20250382289, Compound 12], the IC50 was less than 20 nM. Regarding `Fc1c(-c2c(OC(F)F)ncnc2C2CC2)ncc2cnn(Cc3ccc(-c4nc(C(F)(F)F)c5n4CC(F)(F)C5)cc3)c12` [US20250382289, Compound 14], the IC50 was less than 20 nM.

In turn, `C#CCn1cc(C(F)(F)F)nc1-c1ccc(Cn2ncc3cnc(-c4c(OC(F)F)ncnc4C4CC4)c(F)c32)cc1` [US20250382289, Compound 18] showed an IC50 of less than 20 nM. For the compound `CC#CCn1cc(C(F)(F)F)nc1-c1ccc(Cn2ncc3cnc(-c4c(OC(F)F)ncnc4C4CC4)c(F)c32)cc1` [US20250382289, Compound 19], the IC50 was less than 20 nM. Take `CC(C)n1cc(C(F)(F)F)nc1-c1ccc(Cn2ncc3cnc(-c4c(OC(F)F)ncnc4C4CC4)c(F)c32)cc1` [US20250382289, Compound 20]: the concentration for half-maximal inhibition (IC50) was less than 20 nM.

In the case of `COc1ncnc(C2CC2)c1-c1ncc2cnn(Cc3ccc(-c4nc(C(F)(F)F)c5n4CC4(CC4)C5)cc3)c2c1F` [US20250382289, Compound 21], the IC50 is less than 20 nM.

The record behind these values is BindingDB's records for patent US20250382289 (Xizang Haisco Pharmaceutical, 2025).
